These are literature values, as cited in US20240287072A1, “SOLID STATE FORMS OF LUMATEPERONE SALTS AND PROCESSES FOR PREPARATION OF LUMATEPERONE AND SALTS THEREOF” (TEVA PHARMACEUTICALS INTERNATIONAL GMBH, priority 2018, published 2024).

Counter-ions that a name gives are not always drawn.

For data set [1] the following is noted: free base form, oily, sticky solid.
The conditions of data set [2]: hydrochloride salt disclosed in U.S. Pat. No. 7,183,282.
For data set [3] the following is noted: hydrochloride salt disclosed in U.S. Pat. No. 7,183,282. This is another data set of the same source.

In the case of `CN1CCN2c3c(cccc31)[C@@H]1CN(CCCC(=O)c3ccc(F)cc3)CC[C@@H]12` [lumateperone, 1-(4-fluorophenyl)-4-((6bR, 10aS)-3-methyl-2,3,6b,9,10,10a-hexahydro-1H-pyrido[3′,4′:4,5]pyrrolo[1,2,3-de]quinoxalin-8(7H)-yl)butan-1-one], the solubility result in data set [1] was “poor”.

Regarding `CN1CCN2c3c(cccc31)[C@@H]1CN(CCCC(=O)c3ccc(F)cc3)CC[C@@H]12` [hydrochloride salt of lumateperone], in data set [2], the stability entry is recorded as “poor”. Also, in data set [3], the hygroscopicity result was “hygroscopic”.
